The test system of assay [1] is MK2. Details: method as in PMID 12147348, PMID 35691544. Particulars: cited from earlier work.
Assay [2] concerns the target T1, MK2 (Homo sapiens, UniProt P49137). The assay can be described thus: MK2 kinase inhibition assay (ADP-Glo). The following applies: for IC50: mean ± SD of two independent tests. It counts as biochemical. How it is done: To assess the impact of various compounds on MK2 kinase activity, we utilized the ADP‐Glo Assay Kit (Promega) following the manufacturer's instructions. Luminescence measurements were taken using a SpectraMax Paradigm reader. The inhibition percentage was calculated using the following formula: ((specific signalDMSO control − specific signal inhibitor)/(specific signalDMSO control)) × 100%. The IC50 values were determined employing dose–response curve fitting via Prism (Graph Pad).

For assay [3], the system named is p-Hsp27 (Ser82) and p-MK2 (T334) in THP-1 derived macrophages. The assay can be described thus: Western blot of MK2 signaling in LPS-stimulated THP-1 derived macrophages. It counts as cell-based, human. The following applies: 1 h preincubation, LPS 100 ng/mL 30 min. As to the method: (§1) FIGURE 4 Targeting cellular MK2 signaling with irreversible inhibition by compound 11. (A and B) RT‐PCR analysis of IL‐1β, TNF‐α, and IL‐6 expression in Lipopolysaccharides (LPS)‐stimulated THP‐1 (A) and RAW264.7 (B) Cells, with pre‐treatment of compound 11 for 3 h followed by LPS (3 h) stimulation. (C) The inhibitory effects of compound 11 on TNF‐α and IL‐6 production in LPS‐stimulated RAW264.7 macrophages for 24 h, measured by ELISA. (D and E) Compound 11, alongside CC‐99677 and PF‐3644022, suppressed MK2 pathway activation, validated through western blot analysis post‐LPS stimulation. Cells were preincubated with the specified compounds for 1 h prior to LPS stimulation (100 ng/mL, 30 min). (F) Distinguishes the mode of action between compound 11 and CC‐99677. The complex structure of a small molecule and MK2 (3R2Y) with the same parent nucleus as compound 11 is shown in cyans, and the complex structure of a small molecule and MK2 (3FYJ) with the same parent nucleus as CC‐99677 is shown in orange. (G–I) The effect of indicated inhibitor on Hsp27 phosphorylation following inhibitor washout. Cells were pretreated with indicated compounds for 1 h and then washed to remove free compound and incubated for a further indicated time before activation with LPS. In (A–C), LPS (100 ng/mL) served as the stimulation control, while untreated cells were the baseline control. The data represent as mean ± SD from triplicates, with statistical analysis conducted via one‐way analysis of variance (ANOVA) (^## p < 0.01, ^### p < 0.001 vs. stimulation control; ^***p < 0.001 vs. baseline control).
Next, the efficacy of compound 11 in cellular MK2 signaling inhibition was evaluated by examining both p‐MK2 and p‐Hsp27 at Ser82 levels, the latter being a direct downstream substrate of p‐MK2. […] We try to explore this interesting phenomenon by superimposing the complex crystal structure (3FYJ) that harboring the same skeleton as CC‐99677 (Figure 4F). […] In that way, CC‐99677 binding to MK2 kinase after pre‐incubation with cells and after LPS stimulation may cause the difference in the spatial conformation of MK2 kinase domain, which may make p38 cannot properly bind to MK2, resulting in a decrease in the phosphorylation of MK2.
After the treatment outlined in the figure legends, cells were lysed using 1× sodium dodecyl sulfate (SDS) solution. The lysates were then subjected to SDS‐polyacrylamide gel electrophoresis for separation, followed by transferring onto nitrocellulose membranes. […] Protein bands were detected using an enhanced chemiluminescence detection reagent (Thermo Fisher Scientific).

The test system of assay [4] is p-Hsp27. The assay can be described thus: Cellular washout assay, p-Hsp27 by western blot. It counts as cell-based. The following applies: 1 h pretreatment, then LPS. How it is done:
as §1
Furthermore, to validate the irreversible mechanism of action of compound 11 at the cellular level, we performed a cellular washout assay and assessed p‐Hsp27 levels. The established MK2 irreversible inhibitor CC‐99677 served as positive control, while the reversible ATP‐competitive inhibitor PF‐3644022 was used as negative control. […] In contrast, only 1 h after PF‐3644022 washout, p‐Hsp27 level was totally recovered (Figure 4I).
After the treatment outlined in the figure legends, cells were lysed using 1× sodium dodecyl sulfate (SDS) solution. The lysates were then subjected to SDS‐polyacrylamide gel electrophoresis for separation, followed by transferring onto nitrocellulose membranes. The membranes were incubated with primary antibodies specific to phospho‐MK2, phospho‐Hsp27, MK2, Hsp27, GAPDH, and β‐actin (Cell Signaling Technology), followed by horseradish peroxidase‐conjugated anti‐mouse or anti‐rabbit IgG secondary antibodies. Protein bands were detected using an enhanced chemiluminescence detection reagent (Thermo Fisher Scientific).
On the technique in general: In western blotting, separated proteins are transferred to a membrane and probed.

Assay [5] concerns the target T1, MK2. Nature of the assay: Kinase kinetic analysis of irreversible inhibition (Mobility Shift Assay, preincubation then 100-fold dilution). It counts as biochemical. The following applies: preincubation at 100 times the IC50, monitored continuously. An excerpt: To assess its role as an irreversible MK2 kinase inhibitor, we conducted a kinetic study on compound 11. The well‐known reversible ATP‐competitive MK2 inhibitor, PF‐3644022, served as a negative control. […] The kinase‐inhibitor mixture was subsequently diluted by a factor of 100 with a reaction buffer that included both substrate peptide and ATP. Under these circumstances, the activity of MK2 kinase was continuously monitored by assessing the phosphorylated substrate percentage. […] The enzyme activity curve almost overlapped with the curve of background group, which included only the substrate peptide without inhibitors and MK2 kinase.
In the kinase kinetic analysis to elucidate the irreversible inhibition of MK2 by compound 11, a Mobility Shift Assay was conducted. […] The EZ Reader (Caliper Life Sciences, MA) was then used to assess the kinase activity of the mixture, which was monitored continuously for 1 hour.

Assay [6] concerns p38α-MK2 complex. Also noted: method as in PMID 29549113. Particulars: cited from earlier work.

Each structure is given as a SMILES string.

T1 sequence (P49137 whole entry): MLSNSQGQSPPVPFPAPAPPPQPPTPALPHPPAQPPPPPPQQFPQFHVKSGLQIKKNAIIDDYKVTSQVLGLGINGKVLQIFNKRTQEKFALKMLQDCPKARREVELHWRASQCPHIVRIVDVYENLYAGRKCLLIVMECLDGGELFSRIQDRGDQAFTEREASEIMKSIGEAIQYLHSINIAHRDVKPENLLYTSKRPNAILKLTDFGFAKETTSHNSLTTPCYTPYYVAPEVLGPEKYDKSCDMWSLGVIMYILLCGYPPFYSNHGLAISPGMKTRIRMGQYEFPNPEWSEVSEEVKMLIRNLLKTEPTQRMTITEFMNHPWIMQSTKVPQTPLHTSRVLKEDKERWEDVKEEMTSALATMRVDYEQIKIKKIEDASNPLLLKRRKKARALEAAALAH

As for `Nc1ncnc2c1ncn2[C@@H]1O[C@H](COP(=O)(O)OP(=O)(O)OP(=O)(O)O)[C@@H](O)[C@H]1O` [ATP], the “ATP binding affinity to MK2” value in assay [1] is “approximately 30 µM”. With `C=CC(=O)Nc1cc(-c2cc(-c3cc4c([nH]3)CCNC4=O)ccn2)cc(N(C)C)c1` [compound 12], the half-maximal inhibitory concentration (IC50) (in general, the concentration needed to halve the response being measured) in assay [2] was 121 ± 26.1 nM.

On to `C=CC(=O)Nc1cc(-c2cc(-c3cc4c([nH]3)CCNC4=O)ccn2)ccc1N(C)C` [compound 13], for which half-maximal inhibition in assay [2] (IC50) was put at 113 ± 3.5 nM.

Turning to `CCC(=O)Nc1cccc(-c2cc(-c3cc4c([nH]3)CCNC4=O)ccn2)c1` [compound 3], in assay [2] (read-out: inhibition of MK2 at 1 μM, 1 μM, inhibitory rate of two independent tests), the inhibition (in general, the relative decrease from the control value, in per cent) at 1 µM was roughly 30%. The compound `C=CC(=O)Nc1cc(-c2cc(-c3cc4c([nH]3)CCNC4=O)ccn2)ccc1C` [compound 7] yielded a half-maximal inhibitory concentration (IC50) in assay [2] of 285 ± 97.5 nM. Take `C=CC(=O)Nc1cc(-c2cc(-c3cc4c([nH]3)CCNC4=O)ccn2)ccc1C(F)(F)F` [compound 9]: in assay [2], the IC50 is 52.1 ± 0.3 nM. On the same count and under the same terms, to `C=CC(=O)Nc1cc(C)cc(-c2cc(-c3cc4c([nH]3)CCNC4=O)ccn2)c1` [compound 6] belongs 89.5 ± 15.3 nM; to `C=CC(=O)Nc1cc(OC)cc(-c2cc(-c3cc4c([nH]3)CCNC4=O)ccn2)c1` [compound 4], 452 ± 45.3 nM. The same measure, in the same setting: to `C=CC(=O)Nc1cccc(-c2cc(-c3cc4c([nH]3)CCNC4=O)ccn2)c1` [compound 2] belongs 728 nM; to `C=CC(=O)Nc1cc(-c2cc(-c3cc4c([nH]3)CCNC4=O)ccn2)cc(C(F)(F)F)c1` [compound 8], 217 ± 4.8 nM; to `C=CC(=O)Nc1cc(OC(F)(F)F)cc(-c2cc(-c3cc4c([nH]3)CCNC4=O)ccn2)c1` [compound 10], 212 ± 8.3 nM.

`C=CC(=O)Nc1cc(-c2cc(-c3cc4c([nH]3)CCNC4=O)ccn2)ccc1OC` [compound 5] yielded a half-maximal inhibitory concentration (IC50) in assay [2] of 36.9 ± 20.1 nM. Against the preceding compound, the IC50 is about 5.7-fold lower. Take `Cc1ccc(-c2ccc3c(ccc4sc5c(c43)NC[C@@H](C)NC5=O)n2)cn1` [PF-3644022, reference compound]: the “effect on MK2 phosphorylation at T334 site” value in assay [3] was “inhibited”. For the same compound, the half-inhibitory concentration (IC50) in assay [2] was determined as 12.3 ± 1.3 nM. For the same compound, in assay [4], the “time after inhibitor washout at which p-Hsp27 level recovered” value stood at 1 h. Moreover, the “MK2 kinase activity after 30 min preincubation with inhibitor and 100-fold dilution” value in assay [5] is reported as “recovered gradually”. `CCOCc1cnc(Cl)nc1Oc1ccc2c(ccc3sc4c(c32)NC[C@@H](C)NC4=O)n1` [CC-99677, reference compound]: in assay [3], the “effect on MK2 phosphorylation at T334 site” value is “inhibited”. For the same compound, in assay [4], the “time after inhibitor washout at which p-Hsp27 level recovered” value is 12 h. In the case of `Cc1cnc(-c2ccnc(C(C)(C)O)n2)cc1-n1c(C)cc(OCc2ncc(F)cc2F)c(Cl)c1=O` [ATI-450], in assay [6], the “potency for the p38α-MK2 complex relative to p38α-PRAK or p38α-ATF2” value is “over 700 fold”.

These data come from paper PMC11233931, “Remodeling tumor‐associated macrophage for anti‐cancer effects by rational design of irreversible inhibition of mitogen‐activated protein kinase‐activated protein kinase 2” (MedComm, 2024).
